Experimental data as given in paper PMC9076067 (RSC Advances, 2019).
Values after ≈ are worked out from the molar mass of the structure shown.

Legend:
[1] = parallel artificial membrane permeability assay; format: in vitro ADME; details: 200 μM in PBS pH 7.4, five hours, room temperature
[2] = test system: Staphylococcus aureus; details: cited from earlier work
[3] = test system: MRSA; details: cited from earlier work
[4] = test system: Staphylococcus aureus ATCC6538; experiment: MIC/MBC by micro-dilution broth method; format: cell-based; details: S. aureus ATCC 6538
[5] = test system: Staphylococcus aureus ATCC43300; experiment: MIC/MBC by micro-dilution broth method; format: cell-based; details: S. aureus ATCC 43300
[6] = test system: Staphylococcus epidermidis ATCC12228; experiment: MIC/MBC by micro-dilution broth method; format: cell-based; details: S. epidermidis ATCC 12228
[7] = test system: Micrococcus luteus ATCC10240; experiment: MIC/MBC by micro-dilution broth method; format: cell-based
[8] = test system: Streptococcus mutans ATCC25175; experiment: MIC/MBC by micro-dilution broth method; format: cell-based; details: S. mutans ATCC 25175

For `O=C(O)CN1C(=O)/C(=C/c2ccc(-c3ccc(N(c4ccccc4)c4ccccc4)cc3)c3ccccc23)SC1=S` [5b, (Z)-2-(5-((4-(4-(Diphenylamino)phenyl)naphthalen-1-yl)methylene)-4-oxo-2-thioxothiazolidin-3-yl)acetic acid], which “ability to penetrate the membrane (PAMPA)” value (shortened to “ability”) [1] is on record?
The value was “none of the tested compounds had the ability to penetrate the cell membrane”.

Which results are given for `O=C1NC(=S)SC1=Cc1ccc(F)c(F)c1F` [5-(2,3,4-trifluorobenzylidene)-rhodanine]?
concentration inhibiting growth [2]: 0.5 mg/L; concentration inhibiting growth [3]: 32 mg/L

For `O=C(O)CN1C(=O)/C(=C/c2c3ccccc3c(-c3ccc(N(c4ccccc4)c4ccccc4)cc3)c3ccccc23)SC1=S` [5c, (Z)-2-(5-((10-(4-(Diphenylamino)phenyl)anthracen-9-yl)methylene)-4-oxo-2-thioxothiazolidin-3-yl)acetic acid], which “ability” value [1] is on record?
The value was “none of the tested compounds had the ability to penetrate the cell membrane”.

For `O=C(O)CN1C(=O)/C(=C/c2ccc(-c3ccc(N(c4ccccc4)c4ccccc4)cc3)cc2)SC1=S` [5a, (Z)-2-(5-((4′-(Diphenylamino)-(1,1′-biphenyl)-4-yl)methylene)-4-oxo-2-thioxothiazolidin-3-yl)acetic acid], which “ability” value [1] is on record?
Its value is “none of the tested compounds had the ability to penetrate the cell membrane”.

Which results are given for `O=C(O)CN1C(=O)/C(=C/c2ccc(-c3ccc(N(c4ccccc4)c4ccccc4)cc3)cc2)NC1=S` [7a, (Z)-2-(5-((4′-(Diphenylamino)-(1,1′-biphenyl)-4-yl)methylene)-4-oxo-2-thioxoimidazolidin-3-yl)acetic acid]?
MIC [4]: 1.95 µg/mL (≈ 3.86 µM); MIC [5]: 1.95 µg/mL (≈ 3.86 µM); MIC [6]: 1.95 µg/mL (≈ 3.86 µM); MIC ([7]; M. luteus ATCC 10240): 1.95 µg/mL (≈ 3.86 µM); MIC/MBC ([7]; ratio, ATCC 10240): 16; MIC [8]: 62.5 µg/mL (≈ 124 µM)
